System: IGROV1 complex spheroids (HUVEC, MSC), viability % test/control
Assay: Anticancer human tumor IGROV1 cell line growth inhibition [GQUAD];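 also: spheroids exposed to compounds for 7 days before readout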
Details: for IC50: curve of first compound; for viability, T/C: stronger effect = lower value
From the text: DNA G-quadruplex Stabilizer Agents in Combinations in Complex Spheroids
A high-throughput screen of multi-cell type tumor spheroids was designed to identify active combinations of DNA G-quadruplex stabilizer agents and targeted small molecules. Complex spheroids include a stromal component modeled by human endothelial cells (HUVEC) and fibroblasts modeled by human mesenchymal stem cells (MSCs). The concentration ranges selected for each drug and investigational agent were based upon clinically achievable concentrations if the clinical Cmax of the agent was known.
Compounds. The drugs and investigational agents: pidnarulex (CX-5461; NSC782164), APTO-253 (NSC789042), BRACO-19 (NSC847499), peposertib (NSC802822), ceralasertib (NSC780249), elimusertib (NSC800525), camonsertib (NSC841442), AZD-1390 (NSC803789), olaparib (NSC753686), talazoparib (NSC767125), ART-558 (NSC835418), sotorasib (NSC818433), MRTX-1133 (NSC836407), SN-38 (NSC673596), topotecan (NSC609699), etoposide (NSC141540), doxorubicin (NSC123127), gemcitabine (NSC613327), 5-fluorouracil (NSC19893), paclitaxel (NSC125973), vemurafenib (NSC761431), panobinostat (NSC761190), R-306465 (JNJ-16241199; NSC773264), adavosertib (NSC754352), TP-3654 (NSC805149), carboplatin (NSC241240), KSQ-4279 (NSC840948), and staurosporine (NSC755774) were obtained from the National Cancer Institute (NCI) Developmental Therapeutics Program Chemical Repository (34). The FDA-approved anticancer drug set is available from the NCI Developmental Therapeutics Program. […] The stock solutions were prepared in dimethyl sulfoxide (DMSO, Sigma-Aldrich, St. Louis, MO, cat. D2650) at 800-fold the tested concentration and stored at -70 degrees C prior to their use. All drugs and investigational agents were tested over a range starting from a high concentration at or near the clinical Cmax and decreasing in half-log increments. If the clinical Cmax for an agent had not been determined, the highest concentration tested was 10 microM.
2.3 Cell Culture. All cells were maintained in an incubator at 37 degrees C and 5% CO2 with 95% humidity. The PDC lines were cultured according to standard operating procedures established by the NCI PDMR. All PDCs were thawed and cultured in Matrigel-coated flasks prepared with a working solution of 1X Ham's F-12 nutrient mix, without supplementation (Invitrogen, cat. 11765054), 100 U/mL penicillin-streptomycin (Invitrogen, cat. 15140122), and 2.5% Matrigel (Corning Inc., cat. 354248) for the first three passages. The 857933-349-R-J2-PDC line was cultured in 6C/Colon 1B media, which includes advanced DMEM/F-12 (Thermo Fisher Scientific, cat. 12634028), 10 mM HEPES (Thermo Fisher Scientific, cat. 15630080), 1X GlutaMAX supplement (Thermo Fisher Scientific, cat. 35050061), 0.1 mg/mL primocin (InvivoGen, cat. ant-pm-2), 10% defined fetal bovine serum, heat inactivated (HyClone Laboratories Inc., cat. SH30070.03HI), 50% L-WRN conditioned media (ATCC, cat. CRL-3276), 1.25 mM N-Acetyl-L-cysteine (Sigma-Aldrich, cat. A9165), 10 mM nicotinamide (Sigma-Aldrich, cat. N0636), 1X B-27 supplement (Thermo Fisher Scientific, cat. 17504044), 1X N-2 supplement (Thermo Fisher Scientific, cat. 17502048), 10 microM Y-27632 dihydrochloride (Tocris Bioscience, cat. 1254), and 50 ng/mL human EGF recombinant protein (Thermo Fisher Scientific, cat. PHG0311). The 485176-168-R4-J1-PDC line was cultured in Panc media, which includes all 6C/Colon 1B media components plus 100 ng/mL human FGF-10 (Thermo Fisher Scientific, cat. 100-26), 500 nM SB-431542 (Selleckchem, cat. S1067), and gastrin (Tocris, cat. 3006).
[…]

SMILES: CC(=O)O[C@H]1C(=O)[C@@]2(C)[C@H]([C@H](OC(=O)c3ccccc3)[C@]3(O)C[C@H](OC(=O)[C@H](O)[C@@H](NC(=O)c4ccccc4)c4ccccc4)C(C)=C1C3(C)C)[C@]1(OC(C)=O)CO[C@@H]1C[C@@H]2O + CN(C)c1ccc(Nc2c3ccc(NC(=O)CCN4CCCC4)cc3nc3cc(NC(=O)CCN4CCCC4)ccc23)cc1
- IC50 (second compound 0.0316 µM): < 31.6 nM
- IC50 (second compound 0.1 µM): < 31.6 nM
- IC50 (second compound 0.316 µM): < 31.6 nM
- IC50 (second compound 1 µM): < 31.6 nM
- IC50 (second compound 3.16 µM): < 31.6 nM
- IC50 (second compound 10 µM): < 31.6 nM
- viability, T/C (second compound 0.0316 µM, first compound 0.0316 µM): 7.64%
- viability, T/C (second compound 0.0316 µM, first compound 0.1 µM): 6.24%
- viability, T/C (second compound 0.0316 µM, first compound 0.316 µM): 6.32%
- viability, T/C (second compound 0.0316 µM, first compound 1 µM): 5.33%
- viability, T/C (second compound 0.0316 µM, first compound 3.16 µM): 5%
- viability, T/C (second compound 0.0316 µM, first compound 10 µM): 6.24%
- viability, T/C (second compound 0.1 µM, first compound 0.0316 µM): 7.68%
- viability, T/C (second compound 0.1 µM, first compound 0.1 µM): 5.09%
- viability, T/C (second compound 0.1 µM, first compound 0.316 µM): 5.96%
- viability, T/C (second compound 0.1 µM, first compound 1 µM): 5.48%
- viability, T/C (second compound 0.1 µM, first compound 3.16 µM): 6.36%
- viability, T/C (second compound 0.1 µM, first compound 10 µM): 6.3%
- viability, T/C (second compound 0.316 µM, first compound 0.0316 µM): 8.36%
- viability, T/C (second compound 0.316 µM, first compound 0.1 µM): 5.82%
- viability, T/C (second compound 0.316 µM, first compound 0.316 µM): 5.8%
- viability, T/C (second compound 0.316 µM, first compound 1 µM): 5.16%
- viability, T/C (second compound 0.316 µM, first compound 3.16 µM): 5.67%
- viability, T/C (second compound 0.316 µM, first compound 10 µM): 6.87%
- viability, T/C (second compound 1 µM, first compound 0.0316 µM): 7.67%
- viability, T/C (second compound 1 µM, first compound 0.1 µM): 6.92%
- viability, T/C (second compound 1 µM, first compound 0.316 µM): 6.05%
- viability, T/C (second compound 1 µM, first compound 1 µM): 5.19%
- viability, T/C (second compound 1 µM, first compound 3.16 µM): 6.15%
- viability, T/C (second compound 1 µM, first compound 10 µM): 5.74%
- viability, T/C (second compound 3.16 µM, first compound 0.0316 µM): 6.2%
- viability, T/C (second compound 3.16 µM, first compound 0.1 µM): 8.18%
- viability, T/C (second compound 3.16 µM, first compound 0.316 µM): 6.89%
- viability, T/C (second compound 3.16 µM, first compound 1 µM): 5.22%
- viability, T/C (second compound 3.16 µM, first compound 3.16 µM): 6.1%
- viability, T/C (second compound 3.16 µM, first compound 10 µM): 5.7%
- viability, T/C (second compound 10 µM, first compound 0.0316 µM): 7.12%
- viability, T/C (second compound 10 µM, first compound 0.1 µM): 6.03%
- viability, T/C (second compound 10 µM, first compound 0.316 µM): 5.99%
- viability, T/C (second compound 10 µM, first compound 1 µM): 4.33%
- viability, T/C (second compound 10 µM, first compound 3.16 µM): 4.7%
- viability, T/C (second compound 10 µM, first compound 10 µM): 4.57%
